Reference: patent US7160911B2, “Diarylcycloalkyl derivatives, process for their preparation and their use as pharmaceuticals” (Sanofi-Aventis Deutschland GmbH, priority 2003, dated 2007)

Target: T1, human PPARalpha (Homo sapiens, UniProt Q07869)
T1 construct: amino acids S167–Y468; expressed in transfected cells; host or cells: HEK (human embryo kidney) cells, stably transfected with the pcDNA3 construct
T1 sequence (Q07869 167-468): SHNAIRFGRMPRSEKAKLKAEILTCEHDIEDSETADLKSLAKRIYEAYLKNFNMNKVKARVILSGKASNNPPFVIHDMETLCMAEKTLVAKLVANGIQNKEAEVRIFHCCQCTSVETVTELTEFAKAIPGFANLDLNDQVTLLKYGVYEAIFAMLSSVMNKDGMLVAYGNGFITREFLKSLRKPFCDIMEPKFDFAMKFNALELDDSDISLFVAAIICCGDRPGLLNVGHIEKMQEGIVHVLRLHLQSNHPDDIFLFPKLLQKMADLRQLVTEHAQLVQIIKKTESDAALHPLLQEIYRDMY
Experiment: Cellular PPARalpha assay (stably transfected HEK luciferase reporter cell line)
Format: cell-based
Settings: PPARalpha reporter cell line (HEK, GR-GAL4-humanPPARalpha-LBD)
Description: Determination of EC50 Values of PPAR Agonists in the Cellular PPARalpha Assay
The potency of substances which bind to human PPARalpha and activate in an agonistic manner is analyzed using a stably transfected HEK cell line (HEK=human embryo kidney) which is referred to here as PPARalpha reporter cell line. It contains two genetic elements, a luciferase reporter element (pdeltaM-GAL4-Luc-Zeo) and a PPARalpha fusion protein (GR-GAL4-humanPPARalpha-LBD) which mediates expression of the luciferase reporter element depending on a PPARalpha ligand. The stably and constitutively expressed fusion protein GR-GAL4-humanPPARalpha-LBD binds in the cell nucleus of the PPARalpha reporter cell line via the GAL4 protein portion to the GAL4 DNA binding motifs 5′-upstream of the luciferase reporter element which is integrated in the genome of the cell line.
There is only little expression of the luciferase reporter gene without addition of a PPARalpha ligand if fatty acid-depleted fetal calf serum (cs-FCS) is used in the assay. PPARalpha ligands bind and activate the PPARalpha fusion protein and thereby bring about expression of the luciferase reporter gene. The luciferase which is formed can be detected by means of chemiluminescence via an appropriate substrate.
The PPARalpha reporter cell line was prepared in 2 stages. Firstly, the luciferase reporter element was constructed and stably transfected into HEK cells. For this purpose, five binding sites of the yeast transcription factor GAL4 (each 5′-CGGAGTACTGTCCTCCGAG-3′) (SEQ ID No. 1) were cloned in 5′-upstream of a 68 bp-long minimal MMTV promoter (Genbank Accession # V01175). The minimal MMTV promoter section contains a […] and a TATA element in order to enable efficient transcription by RNA polymerase II. The cloning and sequencing of the GAL4-MMTV construct took place in analogy to the description of Sambrook J. et. al. (Molecular cloning, Cold Spring Harbor Laboratory Press, 1989). Then the complete Photinus pyralis gene (Genbank Accession # M15077) was cloned in 3′-downstream of the GAL4-MMTV element. After sequencing, the luceriferase reporter element consisting of five GAL4 binding sites, MMTV promoter and luciferase gene was recloned into a plasmid which confers zeocin resistance in order to obtain the plasmid pdeltaM-GAL4-Luc-Zeo. This vector was transfected into HEK cells in accordance with the statements in Ausubel, F. M. et al. (Current protocols in molecular biology, Vol. 1–3, John Wiley & Sons, Inc., 1995).
In a second step, the PPARalpha fusion protein (GR-GAL4-humanPPARalpha-LBD) was introduced into the stable cell clone described. For this purpose, initially the cDNA coding for the N-terminal 76 amino acids of the glucocorticoid receptor (Genbank Accession # P04150) was linked to the cDNA section coding for amino acids 1–147 of the yeast transcription factor GAL4 (Genbank Accession # P04386). The cDNA of the ligand-binding domain of the human PPARalpha receptor (amino acids S167–Y468; Genbank Accession # S74349) was cloned in at the 3′-end of this GR-GAL4 construct. The fusion construct prepared in this way (GR-GAL4-humanPPARalpha-LBD) was recloned into the plasmid pcDNA3 (from Invitrogen) in order to enable constitutive expression therein by the cytomegalovirus promoter. This plasmid was linearized with a restriction endonuclease and stably transfected into the previously described cell clone containing the luciferase reporter element. The finished PPARalpha reporter cell line which contains a luciferase reporter element and constitutively expresses the PPARalpha fusion protein (GR-GAL4-human PPARalpha-LBD) was isolated by selection with zeocin (0.5 mg/ml) and G418 (0.5 mg/ml).
The activity of PPARalpha agonists is determined in a 3-day assay which is described below: […]

SMILES	EC50 [nM]
Cc1cccc(CO[C@@H]2CCC[C@H](OCc3coc(C4CCCCC4)n3)C2)c1C(=O)O [Example 13, 2-[(1R,3S)-3-(2-cyclohexyloxazol-4-ylmethoxy)cyclohexyloxymethyl]-6-methylbenzoic acid]	0.06
Cc1cccc(CO[C@@H]2CCC[C@H](OCc3nc(-c4ccc5c(c4)OCCO5)oc3C)C2)c1C(=O)O [Example 3]	0.2
Cc1ccc(-c2nc(CO[C@H]3CCC[C@@H](OCc4cccc(C)c4C(=O)O)C3)c(-c3ccccc3)o2)cc1 [Example 11, 2-methyl-6-[(1R,3S)-3-(5-phenyl-2-p-tolyloxazol-4-ylmethoxy)cyclohexyloxy-methyl]benzoic acid]	27
COCCOc1cc(-c2nc(CO[C@H]3CCC[C@@H](OCc4cccc(C)c4C(=O)O)C3)c(C)o2)cc(C(F)(F)F)c1 [Example 10]	0.3

Continued, values first:

EC50 [nM]	SMILES
0.6	Cc1ccc(-c2nc(CO[C@H]3CCC[C@@H](OCc4cccc(C)c4C(=O)O)C3)c(C)o2)o1 [Example 4, 2-methyl-6-{(1R,3S)-3-[5-methyl-2-(5-methylfuran-2-yl)oxazol-4-ylmethoxy]cyclohexyloxy-methyl}benzoic acid]
34	COc1cccc(-c2nc(CO[C@H]3CCC[C@@H](OCc4cccc(C)c4C(=O)O)C3)c(-c3ccccc3)o2)c1 [Example 12, 2-{(1R,3S)-3-[2-(3-methoxyphenyl)-5-phenyloxazol-4-ylmethoxy]cyclohexyloxy-methyl}-6-methylbenzoic acid]
0.2	Cc1cccc(CO[C@@H]2CCC[C@H](OCc3nc(-c4ccc5ccccc5c4)oc3C)C2)c1C(=O)O [Example 1, 2-methyl-6-[(1R,3S)3-(5-methyl-2-naphthalen-2-yloxazol-4-yl-methoxy)cyclohexyloxymethyl]benzoic acid]
